Data set [1] concerns the target T1, IN strand transfer activity (Human immunodeficiency virus type 1 group M subtype B, UniProt P12497).
T1 construct: loaded on a Superdex 200 16/600 PG column (for full length IN); made in house
In words: IN strand transfer ELISA assay. Type of data set: biochemical, HIV-1. How it is done: IN strand transfer ELISA assay has been adapted from. […] 16 μL of IN mixture (20 mM HEPES pH 7.5, 10 mM MgCl2, 1 mM DTT, 0.50 μM His6-IN) was added. […] The reaction was stopped by addition of 60 μL stop mixture (20 mM Tris–HCl pH 7.6, 0.4 M NaCl, 10 mM Na2EDTA, 0.1 mg/mL salmon sperm DNA) and the volume transferred to Reacti-Bind high-binding capacity streptavidin-coated white plates (Thermo Scientific Pierce). After 1 h incubation at room temperature under gentle shaking, integrase and unjoined DNA were removed by three washes with 200 μL wash solution 1 (30 mM NaOH, 0.2 M NaCl, 1 mM Na2EDTA). 100 μL of 2000-fold diluted HRP-conjugated anti-DIG Fab (Roche Applied Science) was added and the plate was incubated for 1 h at 37°C. Unbound antibody was removed with wash solution 2 (PBS pH 7.4, 0.05% Tween-20, 0.1% bovine serum albumin), 100 μL of SuperSignal Femto ELISA substrate (Thermo Scientific Pierce) was added and chemiluminescence was immediately read in a PHERAstar Plus with LUM-plus module. The signal, converted to % inhibition, was analyzed by fitting a sigmoidal dose–response curve to determine IC50 and the inhibition plateau.
(In general: In an ELISA, binding on a coated surface is turned into a signal by an enzyme label.)

Another data set has as its system HIV-1 NL4-3. In words: Antiviral assay in MT-4 cells, multiple-round infection, CellTiter-Glo. It counts as cell-based. How it is done: MT-4 cells growing exponentially at the density of 10^6/mL were infected with HIV-1 strain NL4-3 at a MOI (multiplicity of infection) of 0.001 for 2 h. The cells were washed with PBS and aliquoted, using 100 μL fresh complete RPMI, into 96-well white plates (Corning) in the presence of different concentrations of compounds.

Another data set concerns HxB2 HIV-1. The data set is described as follows: Antiviral assay in MT4 cells infected with HxB2. It counts as cell-based. Conditions: Human immunodeficiency virus 1, HXB2, MT4; Table 1; read-out: HxB2 EC50 (MT4 assays).
Another data set is described as follows: in vitro. Type of data set: cell-based. The settings on record: human. The protocol:
Growth inhibition was monitored in a proliferating human T-cell line (MT-4) with different concentrations of compounds. ATP levels were quantified using the CellTiter-Glo® luminescent reagent (Promega) to measure the ability of a compound to inhibit cell growth, an indication of the compound’s cytotoxicity. Cytotoxicity was evaluated at either day 2 or day 5.

In data set [2] the test system is NL4-3 Protease L10R, M46I, L63P, V82T, I84V. In words: Antiviral assay on PI-resistant virus. It counts as cell-based, HIV-1. The settings on record: ratio EC50 resistant virus / wt virus.
Data set [3] concerns NL4-3 RT M41L, D67N, K103N, M184V, L210W, T215Y. The data set is described as follows: Antiviral assay on Multi-drug (NRTI + NNRTI) resistant virus. It counts as cell-based, HIV-1. Conditions: ratio EC50 resistant virus / wt virus; NRTI + NNRTI mutations.
The test system of the next data set is NL4-3 RT K103N, Y181C. The data set is described as follows: Antiviral assay on NNRTI-resistant virus. Type of data set: cell-based, HIV-1. The settings on record: ratio EC50 resistant virus / wt virus.
The test system of data set [4] is NL4-3 HIV-1 virus bearing the T174I mutation in IN. The data set is described as follows: microbe, parasite or virus in culture. The settings on record: Human immunodeficiency virus 1, NL43, read-out: EC50 on NL4-3 IN T174I mutant. Type of data set: cell-based.
In data set [5] the target is T2, IN 3′ processing activity (Human immunodeficiency virus type 1 group M subtype B, UniProt P12497).
T2 construct: were carried out at 37°C with the full-length HIV-1 IN
The data set is described as follows: IN 3′ processing radioactive assay. It counts as biochemical, HIV-1. Conditions: 0.01 to 100 μM. The source says:
Sequences of the different oligonucleotides (ODN) substrates are U5B: 5′-[…]-3′, U5A: 5′- […]-3′ and U5B-2: 5′-[…]-3′. ODNs were purchased from Eurogentec and further purified by electrophoresis in a denaturing 16% acrylamide/urea gel. For activity assays, ODNs (U5B and U5B-2) were radiolabelled with T4 polynucleotide kinase (New England Biolabs) and γ[^32-P]ATP (3000 Ci/mmol) (Amersham), and purified on a Sephadex G-10 column (GE Healthcare). Double-stranded ODNs (U5B with U5A and U5B-2 with U5A used for 3′-processing and strand transfer reactions, respectively) were obtained by mixing equimolar amounts of complementary strands in the presence of 100 mM NaCl.
IN activity assays – 3′-processing, strand transfer – were carried out at 37°C with the full-length HIV-1 IN, in a buffer containing 10 mM HEPES (pH 7.2), 1 mM DTT, 7.5 mM MgCl2 in the presence of 6.25 nM DNA (3′-processing) or 12.5 nM DNA (strand transfer) as described previously. For negative control, 100 mM Na2EDTA was added to the reaction before incubation. Products were separated by electrophoresis in denaturing 16% acrylamide/urea gels. Gels were analysed with a Molecular Dynamics STORM phosphoimager and quantified with ImageQuant™ 4.1 software.

Another data set concerns HIV-1 mutant IN A128T. In words: Antiretroviral activity on HIV-1 mutant IN A128T. Type of data set: cell-based.
In data set [6] the test system is HIV-1 proviral DNA (late reverse transcription product, integrated DNA). In words: Quantification of viral cDNA by real-time PCR in infected MT4 cells. It counts as cell-based. How it is done: Prior to infection, viral stocks were treated 1 h at 37°C with 100 U per mL of DNAseI (Roche Applied Science). MT4 cells (6x10^6) were infected with virus at MOI = 0.001. At 7 h, 24 h and 48 h post-infection, cells were harvested, washed twice in PBS and DNA was extracted using the QIAamp Blood DNA Minikit (Qiagen). Quantifications of viral DNA were performed by real-time PCR using the LightCycler 480 system (Roche Applied Science). Primers, probes, and PCR run conditions were described previously. The copy number of HIV-1 late reverse transcription product (LRT) was determined using standard curves obtained by amplification of cloned DNA containing the matched sequences. The copy number of integrated HIV-1 DNA was determined in reference to a standard curve generated by concomitant two-stage PCR amplification of a serial dilution of the standard HeLa HIVR7-Neo cell DNA [59]. Copy numbers of each viral form were normalized with the number of cells obtained by the quantification by PCR of the β-globin gene according to the manufacturer instructions (Roche Applied Science).
(Quantitative PCR measures a nucleic acid by following its amplification.)

Data set [7] has as its system panel of virus mutants in an NL4-3 background resistant to INSTIs and other classes of ARV drugs. The settings on record: EC50 on resistant virus / EC50 on wt.

Like-named read-outs stand apart in the source and are kept apart here. Bounds are passed on as bounds.

As usually defined, the IC50 is the concentration that inhibits the measured activity by half. By EC50 is commonly meant the concentration giving half of the maximal effect. As usually defined, the CC50 is the concentration at which the toxic effect on the cells reaches its halfway point. Take `Cc1nc2c(c(-c3ccc4c(c3)CCCO4)c1C(OC(C)(C)C)C(=O)O)CCCC2` (stereo not shown) [Mut101, 2-(tert-butoxy)-2-[4-(3,4-dihydro-2H-1-benzopyran-6-yl)-2-methyl-5,6,7,8-tetrahydroquinolin-3-yl]acetic acid]: the IC50 in data set [1] (Table 1, ELISA, read-out: IN ST IC50) amounted to 0.17 µM. Moreover, the “IN ST plateau (%)” value in data set [1] (inhibition plateau, concentrations up to 100 μM) is listed as 66%. The EC50 is 0.54 µM in the data set on HIV-1 NL4-3 (Human immunodeficiency virus 1, NL43, MT4, Table 1, read-out: NL4-3 EC50 (MT4 assays)); 0.47 µM in the data set with HIV-1 NL4-3 (Human immunodeficiency virus 1, NL43, MT4, Table 3, mean of two independent experiments, read-out: EC50 NL4-3 WT); 0.49 ± 0.04 µM with HIV-1 NL4-3 (Human immunodeficiency virus 1, NL43, MT4 cells, mean of six independent experiments, read-out: NL4-3 EC50 Multiple-round); 0.092 µM with HxB2 HIV-1; above 50 µM in data set [4]. The CC50 in “in vitro” is above 50 µM. The “EC50 fold change PI” value in data set [2] came out at 1. Moreover, the “EC50 fold change Multi-drug” value in data set [3] is 1. In addition, in the data set on NL4-3 RT K103N, Y181C, the “EC50 fold change NNRTIs” value is 1. Moreover, the “Maximum inhibition of IN 3′ processing” value in data set [5] was 25-30%. For the same compound, the “ARV activity on HIV-1 mutant IN A128T” value in the data set with HIV-1 mutant IN A128T was “full ARV activity”. In addition, the “Integration of the proviral DNA (qPCR)” value in [6] is “inhibited the integration of the proviral DNA”. The “Production of proviral DNA at reverse transcription (qPCR)” value in [6] was “not the production of proviral DNA at reverse transcription”. For the same compound, the “EC50 fold change (FC) ratio against all resistant viruses” value in [7] was at most 1.
